System: not listed separately
Assay: Selectivity index, ratio of CC50 for human THP-1 cells to EC50 for bloodstream form Trypanosoma brucei
Assay type: toxicity
Details: read-out: Ratio CC50/EC50

| Compound | selectivity ratio |
| --- | --- |
| Nc1nc(N)c(C(C[N+](=O)[O-])c2ccc3c(c2)OCO3)c(N)n1 (stereo not drawn) | 50 |
| Nc1nc(N)c(C(C[N+](=O)[O-])c2ccc3c(c2)CCO3)c(N)n1 (stereo not drawn) | 11 |
| Nc1nc(N)c(C(C[N+](=O)[O-])c2cccc([N+](=O)[O-])c2)c(N)n1 (stereo not drawn) | 42 |
| Nc1nc(N)c(C(C[N+](=O)[O-])c2ccc(Cl)c(Cl)c2)c(N)n1 (stereo not drawn) | 31 |
| COc1ccc(C(C[N+](=O)[O-])c2c(N)nc(N)nc2N)cc1OC (stereo not drawn) | 11 |
| Cc1ccc(C(C[N+](=O)[O-])c2c(N)nc(N)nc2N)s1 (stereo not drawn) | 42 |

System: Leishmania infantum
Assay: Antiparasitic activity against Leishmania infantum intracellular amastigotes MHOM/BR/1972/BH46 infected in human THP-1 cells assessed as inhibition of parasitic growth at 50 uM pre-infected for 24 hrs followed by compound addition and measured after 48 hrs relative to control
Assay type: functional
Details: MHOM/BR/1972/BH46, THP-1

| Compound | inhibition at 50 µM |
| --- | --- |
| Nc1nc(N)c(C(C[N+](=O)[O-])c2ccc3c(c2)CCO3)c(N)n1 (stereo not drawn) | 21.1% |
| Nc1nc(N)c(C(C[N+](=O)[O-])c2cccc([N+](=O)[O-])c2)c(N)n1 (stereo not drawn) | 74.2% |
| Nc1nc(N)c(C(C[N+](=O)[O-])c2ccc(Cl)c(Cl)c2)c(N)n1 (stereo not drawn) | 53.9% |
| COc1ccc(C(C[N+](=O)[O-])c2c(N)nc(N)nc2N)cc1OC (stereo not drawn) | 62.4% |
| Cc1ccc(C(C[N+](=O)[O-])c2c(N)nc(N)nc2N)s1 (stereo not drawn) | 15.4% |

System: not listed separately
Assay: Inhibition of N-terminal his 6 tagged recombinant Trypanosoma brucei PTR1 expressed in Escherichia coli BL21 (DE3) cells preincubated for 10 mins followed by NADPH addition and measured after 10 to 50 mins by multilabel plate reader method
Assay type: cell-based
Details: not given

| Compound | IC50 |
| --- | --- |
| Nc1nc(N)c(C(C[N+](=O)[O-])c2ccc3c(c2)OCO3)c(N)n1 (stereo not drawn) | 0.25 µM |
| Nc1nc(N)c(C(C[N+](=O)[O-])c2ccc3c(c2)CCO3)c(N)n1 (stereo not drawn) | 0.39 µM |
| Nc1nc(N)c(C(C[N+](=O)[O-])c2cccc([N+](=O)[O-])c2)c(N)n1 (stereo not drawn) | < 0.1 µM |
| Nc1nc(N)c(C(C[N+](=O)[O-])c2ccc(Cl)c(Cl)c2)c(N)n1 (stereo not drawn) | 0.15 µM |
| COc1ccc(C(C[N+](=O)[O-])c2c(N)nc(N)nc2N)cc1OC (stereo not drawn) | 0.12 µM |
| Cc1ccc(C(C[N+](=O)[O-])c2c(N)nc(N)nc2N)s1 (stereo not drawn) | 0.39 µM |

Biological target: T1, Pteridine reductase 1 (Leishmania major, UniProt Q01782)
T1 sequence (Q01782 whole entry): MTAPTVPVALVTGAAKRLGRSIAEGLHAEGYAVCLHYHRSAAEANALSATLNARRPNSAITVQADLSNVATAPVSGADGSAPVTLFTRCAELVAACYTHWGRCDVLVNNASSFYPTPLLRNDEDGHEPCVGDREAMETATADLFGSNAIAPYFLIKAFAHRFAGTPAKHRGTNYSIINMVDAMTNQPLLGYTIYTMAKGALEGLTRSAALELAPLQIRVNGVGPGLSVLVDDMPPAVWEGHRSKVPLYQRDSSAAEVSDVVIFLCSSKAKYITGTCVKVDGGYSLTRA
Assay: Inhibition of N-terminal his 6 tagged recombinant Leishmania major PTR1 expressed in Escherichia coli BL21 (DE3) cells preincubated for 10 mins followed by NADPH addition and measured after 10 to 50 mins by multilabel plate reader method
Details: not given

| IC50 | Compound |
| --- | --- |
| 21.3 µM | Nc1nc(N)c(C(C[N+](=O)[O-])c2ccc3c(c2)CCO3)c(N)n1 (stereo not drawn) |
| 63.4 µM | Nc1nc(N)c(C(C[N+](=O)[O-])c2cccc([N+](=O)[O-])c2)c(N)n1 (stereo not drawn) |
| 60.2 µM | Nc1nc(N)c(C(C[N+](=O)[O-])c2ccc(Cl)c(Cl)c2)c(N)n1 (stereo not drawn) |
| 2.4 µM | COc1ccc(C(C[N+](=O)[O-])c2c(N)nc(N)nc2N)cc1OC (stereo not drawn) |

System: THP-1
Assay: Cytotoxicity against human THP-1 cells assessed as reduction in cell viability measured after 72 hrs by MTT assay
Assay type: functional
Details: not given

| Compound | CC50 |
| --- | --- |
| Nc1nc(N)c(C(C[N+](=O)[O-])c2ccc3c(c2)OCO3)c(N)n1 (stereo not drawn) | 25 µM |
| Nc1nc(N)c(C(C[N+](=O)[O-])c2ccc3c(c2)CCO3)c(N)n1 (stereo not drawn) | 50 µM |
| Nc1nc(N)c(C(C[N+](=O)[O-])c2cccc([N+](=O)[O-])c2)c(N)n1 (stereo not drawn) | 50 µM |
| Nc1nc(N)c(C(C[N+](=O)[O-])c2ccc(Cl)c(Cl)c2)c(N)n1 (stereo not drawn) | 25 µM |
| COc1ccc(C(C[N+](=O)[O-])c2c(N)nc(N)nc2N)cc1OC (stereo not drawn) | 25 µM |
| Cc1ccc(C(C[N+](=O)[O-])c2c(N)nc(N)nc2N)s1 (stereo not drawn) | 100 µM |

System: Trypanosoma brucei
Assay: Antiparasitic activity against blood stream form Trypanosoma brucei assessed as parasitic growth inhibition incubated for 72 hrs by resazurin dye based fluorescence analysis
Assay type: functional, organism-based
Details: not given

| Compound | EC50 |
| --- | --- |
| Nc1nc(N)c(C(C[N+](=O)[O-])c2cccc([N+](=O)[O-])c2)c(N)n1 (stereo not drawn) | 1.19 µM |
| Nc1nc(N)c(C(C[N+](=O)[O-])c2ccc(Cl)c(Cl)c2)c(N)n1 (stereo not drawn) | 0.82 µM |
| COc1ccc(C(C[N+](=O)[O-])c2c(N)nc(N)nc2N)cc1OC (stereo not drawn) | 2.33 µM |
| Cc1ccc(C(C[N+](=O)[O-])c2c(N)nc(N)nc2N)s1 (stereo not drawn) | 2.41 µM |

Second part, the compound after the results:

| EC50 | Compound |
| --- | --- |
| 0.5 µM | Nc1nc(N)c(C(C[N+](=O)[O-])c2ccc3c(c2)OCO3)c(N)n1 (stereo not drawn) |
| 4.4 µM | Nc1nc(N)c(C(C[N+](=O)[O-])c2ccc3c(c2)CCO3)c(N)n1 (stereo not drawn) |

Reference: ChEMBL document CHEMBL5528010, “The discovery of aryl-2-nitroethyl triamino pyrimidines as anti-Trypanosoma brucei agents” (Eur J Med Chem, 2024)
